Experimental data published in BigSolDB 2.1.

O=C(O)CCC(=O)C(=O)O
solubility (mole fraction)
Conditions | 278.15 K | 280.15 K | 282.15 K | 284.15 K | 286.15 K | 288.15 K | 293.15 K
in ethyl acetate | 0.0358 | 0.0374 | 0.0392 | 0.0418 | 0.0455 | 0.0494 | 0.0603
in n-butyl acetate | 0.0261 | 0.0284 | 0.0303 | 0.0337 | 0.0363 | 0.0391 | 0.0466
in water | 0.11 | 0.114 | 0.12 | 0.128 | 0.135 | 0.146 | 0.168
